Data: patent US7271164B2, “Cyclohepta[b][1,4]diazepino[6,7,1,-hi]indoles and derivatives” (Wyeth, priority 2000, dated 2007)
Counter-ions that a name gives are not always drawn.

Legend:
[1] = biological target: T1, human 5-hydroxytryptamine2C (h5HT2C) receptor (Homo sapiens, UniProt P28335); test: 5HT2C Receptor Binding Test Procedure ([125I] DOI displacement, CHO cell membranes)
T1 construct: expressed in transfected cells; host or cells: CHO (Chinese Hamster Ovary) cells; membrane preparation
T1 sequence (P28335 33-458): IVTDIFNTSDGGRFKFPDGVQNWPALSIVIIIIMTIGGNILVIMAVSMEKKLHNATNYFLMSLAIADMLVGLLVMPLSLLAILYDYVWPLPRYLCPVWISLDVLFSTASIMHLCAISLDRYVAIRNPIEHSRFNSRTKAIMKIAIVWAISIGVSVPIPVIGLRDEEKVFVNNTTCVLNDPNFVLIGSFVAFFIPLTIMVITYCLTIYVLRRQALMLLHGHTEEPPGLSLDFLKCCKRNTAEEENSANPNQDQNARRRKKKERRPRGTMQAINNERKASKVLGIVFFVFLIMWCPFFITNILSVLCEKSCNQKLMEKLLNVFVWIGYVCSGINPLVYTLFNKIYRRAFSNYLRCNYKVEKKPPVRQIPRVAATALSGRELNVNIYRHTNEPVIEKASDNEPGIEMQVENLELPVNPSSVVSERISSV

[2] = biological target: T2, human 5-HT2C receptor (Homo sapiens, UniProt P28335); test: Stimulation of [3H] Inositol Monophosphate Production by 5-HT2C Agonists (transfected CHO cells); format: cell-based
T2 construct: expressed in transfected cells; host or cells: CHO cells
T2 sequence (P28335 33-458): T1 sequence (P28335 33-458)
Description: One (1) ml of maintenance medium containing 1 μCi/ml myo-[^3H] inositol was added to each well. After 48 hours labeling, the cells were washed once with 0.5 ml DMEM containing 25 mM HEPES and 10 mM LiCl, then preincubated with the medium for 30 min (antagonists were included in this period if tested). At the end of the preincubation, the medium was removed, the cells were then incubated with test compounds (in presence of antagonists if needed) for 30 min. The reaction was terminated by removal of the incubation solution and addition of 0.5 ml ice-cold 5% PCA, followed by 15 to 30 min incubation on ice. 200 μl of 0.5 M Tes/1.5 M K2CO3 was added to each well to neutralize to pH 7, and plates were left on ice for another 15 to 30 min to precipitate all salts. The liquid and solid phases were separated by centrifugation.
A portion (350 μl) of the upper aqueous phase was applied to Dowex AG-1X8 (formate form, 100-200 mesh) columns. The columns were then washed stepwise with 10 ml of water and 10 ml of 25 mM ammonium formate to remove free myo-[^3H]inositol and deacylated phosphoinositol, respectively. Finally 10 ml of 0.2 M ammonium formate solution was applied to the columns to elute [^3H] inositol monophosphate ([^3H] IP1) directly into scintillation vials. Of this eluate, 1 ml was used to determine radioactivity by scintillation counting. […]

## CSc1ccc2c(c1)C(N1CCN(C)CC1)Cc1ccccc1S2 (stereo not drawn) [Methiothepin]
[1]; reference compounds, [125I] DOI binding, h5HT2C in CHO membranes, read-out: Ki value and 95% confidence interval
  Ki: 4.6 nM

## c1cc2c3c(c1)c1c(n3CCNC2)CCCCC1 (as salt: hydrochloride) [Example 1, 1,2,3,4,9,10,11,12-Octahydro-8H-cyclohepta[b][1,4]diazepino[6,7,1-hi]indole]
other
  melting point: 303 to 306 °C

## COc1cc(CC(C)N)c(OC)cc1I (stereo not drawn) [[^125I] DOI]
[1]; read-out: dissociation constant, KD of [125I] DOI at the human serotonin 5HT2C receptor, saturation binding with increasing concentrations of [125I] DOI
  Kd: 0.4 nM

## c1cc2c3c(c1)C1CCCCCC1N3CCNC2 (stereo not drawn) (as salt: hydrochloride) [Example 2, 1,2,3,4,8,9,10,11,12,12a-Decahydro-7bH-cyclohepta[b][1,4]diazepino[6,7,1-hi]indole]
other
  melting point: 258 to 263 °C

## c1cc2c3c(c1)c1c(n3CCNC2)CCCCC1 [Example 1, 1,2,3,4,9,10,11,12-Octahydro-8H-cyclohepta[b][1,4]diazepino[6,7,1-hi]indole]
[2]; CHO, read-out: 5HT2C % Emax (5HT, 100%)
  Emax: 73%
[2]; read-out: Stimulation of IP3 (EC50)
  EC50: 500 nM
